Data reported in US20220031670A1, “PHARMACEUTICAL COMBINATIONS FOR USE IN THE TREATMENT OF NEOPLASTIC DISEASES” (Basilea Pharmaceutica International AG, priority 2018, published 2022).
Marks after values point to notes of the source that are not given here.

Assays:
[1] = tested on: patient-derived pancreatic tumour PAXF1657 xenograft; assay: Antitumor efficacy and induction of cures in the patient-derived PAXF1657 pancreatic xenograft model; format: in vivo, female NMRI nu/nu mice; conditions: for # of regressed tumors (total) / T/C: day 21 after first dose; for # of confirmed cures (total) / # of tumors with TV ≤ 4 mm^3 (total) / % cures: day 60 after first dose (endpoint); for tumor free animals / cures (in words): single agent treatment (BAL101553 even at 16 mg/kg; Gemcitabine SoC)
Experimental: The tumor xenografts are derived from surgical specimens from cancer patients. Following excision at surgery, tumor pieces were subcutaneously implanted into immunodeficient mice and are therefore referred to as patient tumor explants passaged subcutaneously in nude mice or as patient-derived tumor xenografts (PDX). Establishment and characterization of the PDXs was performed following their primary implantation into immunodeficient mice (passage 1). The tumor xenografts were passaged until establishment of a stable growth pattern. At that point, master stocks of early passage PDXs were frozen in liquid nitrogen. Usually, a particular stock batch is only used for a limited number of further passages.
Tumor fragments for implantation were obtained from xenografts in serial passage in female NMRI nu/nu mice (NMRI-Foxn1nu). After removal from donor mice, tumors were cut into fragments (3-4 mm edge length) and placed in PBS containing 10% penicillin/streptomycin. Recipient female mice (10 weeks old NMRI-Foxn1nu animals) were anesthetized by inhalation of isoflurane and received unilateral tumor implants of PAXF1657 tumors subcutaneously in the flank.
Mice and tumor implants were monitored daily until solid tumor growth was detectable in a sufficient number of animals. At randomization, the volume of growing tumors was determined. Tumors were measured (mm) in two dimensions using calipers, and volume was calculated using the formula: Tumor Volume (TV) (mm^3)=(width^2×length)/2. […] Sixteen days after tumor cell implantation, on Day 0 of the study, mice were randomized into groups of 10 animals, with group median tumor volumes of 106.6-109.2 mm^3 and body weights of 25.3-27.0 g.
The solution of BAL101553 with a concentration of 1.6 mg/ml for dosing at 16 mg/kg and as stock solution for the preparation of the other dosing solutions was prepared at the beginning of the study by dissolving 595.2 mg of the provided powder in 300 ml vehicle (stirring/vortexing/sonicating if necessary). The acidity of this solution was adjusted to pH 5 with a 1% sodium acetate solution; afterwards the total volume was adjusted to 372 ml by addition of the vehicle (99.7% (v/v) saline solution (0.9% (w/v) NaCl), 0.3% (v/v) sodium acetate, pH 5). The stock solution was sterile filtered and aliquoted into vials of each 12 ml that were stored at −20° C. One vial was thawed on each dosing day. For the 16 mg/kg dose, the solution was applied undiluted; for 8 mg/kg dose, one volume of the stock solution was diluted with one volume vehicle prior to application; and for 10 mg/kg dose, one volume of the stock solution was diluted with 0.6 volumes vehicle
The Gemcitabine dosing solution at a concentration of 24 mg/ml for dosing at 240 mg/kg was prepared once per week on the dosing day by dissolving 591.89 mg of Gemcitabine-HCl (Gemedac®, Medac Germany) corresponding to 264 mg active pharmaceutical ingredient in 11 ml of the vehicle (0.9% (w/v) NaCl). The dosing solution was administered in a dose volume of 10 ml/kg.
All doses were adjusted to 10 mL/kg. […] Gemcitabine was administered i.v. and BAL101553 orally.
The antitumor effect of the combination treatment with BAL101553 (prodrug of BAL27862) and gemcitabine was evaluated in the established in vivo subcutaneous patient-derived pancreatic mouse xenograft model PAXF1657. By using 3 different dosing regimens of BAL101553 as monotherapy, standard of care (SoC) dosing of gemcitabine monotherapy and the combination treatment of two different dosing regimens of BAL101553 with SoC gemcitabine, the anticancer effect of single agent treatments and of the combined treatments were determined and compared. […]

[2] = Tolerability (body weight, mortalities) in the PAXF1657 pancreatic xenograft model
Experimental: Animals were housed in individually ventilated cages ([…] Sealsafe™-IVC-System, […], Hohenpeissenberg, Germany), depending on group size, either in type III or type II long cages. They were kept under a 14 L:10D artificial light cycle. The temperature inside the cages was maintained at 25±1° C. with a relative humidity of 40-70% and an air change (AC) rate in the cage of 60-65 AC/hour. Dust-free bedding consisting of aspen wood chips with approximate dimensions of 5×5×1 mm (ABEDD®-LAB & VET Service GmbH, Vienna, Austria, Product Code: LTE E-001) and additional nesting material were used. The cages including the bedding and the nesting material were changed weekly. The animals were fed autoclaved Teklad Global 19% Protein Extruded Diet (T.2019S.12) from Envigo RMS SARL and had access to sterile filtered and acidified (pH 2.5) tap water that was changed twice weekly. Feed and water were provided ad libitum. All materials were autoclaved prior to use. Animals were provided with a nutrient fortified water gel (DietGel® Recovery from ClearH2O, Maine, USA) from day 0 to day 45, which was changed every other day.
Groups of mice (n=10) bearing PAXF1657 tumors were dosed as outlined in Table 1. All doses were adjusted to 10 mL/kg. The control groups received oral doses of vehicle (pH 5 buffered 0.9% NaCl solution). Gemcitabine was administered i.v. and BAL101553 orally. When Gemcitabine and BAL0101553 were dosed in combination, Gemcitabine was administered first followed by a delay of 4 h for the BAL0101553 dosing.
Body weights and tumor volumes were recorded twice weekly until the end of the on day 60. These parameters were analyzed and graphically represented by using GraphPad-Prism™ 7 for Windows according to standard procedure. Tumor growth regression was defined as TV (at day 21)−TV (day 0)<0. […] Tumor free animals at the end of the study time (day 60) were assessed for residual PAXF1657 tumor cells by pathological methods. Skin und subcutaneous tissue including the tumor cell inoculation site from the flank region were resected, preserved in formalin and embedded in paraffin. Sections of approximately 5 μm were mounted on glass slides and stained with hematoxylin/eosin and were evaluated by a trained pathologist, to identify residual tumor cells at the site of injection, and were being reported as positive for the existence of residual tumor cells or as negative for a complete lack of any evidence of residual tumor cells.
Dosing schemes are outlined in Table 1.

[3] = Pharmacokinetic profile in mouse plasma (LC-MS/MS), single agents versus combination; format: in vivo, PAXF1657 tumor bearing mice; conditions: 10 minutes to 24 hours, BAL101553 oral, Gemcitabine 240 mg/kg i.v. 4 hours before BAL101553
Experimental: PAXF1657 tumor bearing mice of the identical strain were treated either with BAL101553 oral 10 mg/kg, Gemcitabine 240 i.v. mg/kg or with a combination of BAL101553 and Gemcitabine where Gemcitabine was administered 4 hours before BAL101553. Control animals received appropriate vehicle control. The mice were dosed until steady state was reached (BAL101553 was dosed d1-d3 and Gemcitabine was dosed on day 3, the doses used for the combination-treatment matched those used in the monotherapy). Blood was taken from every animal according to a determined schedule covering a time window of 10 minutes to 24 hours, processed for plasma and subsequently analyzed by LC-MS/MS for the determination of BAL27862 (parent drug of BAL101553) and Gemcitabine concentrations (ng/ml plasma). Data points represent mean values of ng/ml plasma concentration+/−SEM (n=3 animals). […]
The following calibration ranges in mouse plasma were applied: 1.00 to 500 ng/mL and 10 to 10000 ng/mL for BAL27862 and 10.0 to 10000 ng/mL for BAL101553 and Gemcitabine. Thus, the limit-of-quantitation (LOQ) was: 1 ng/mL for BAL27862 and 10.0 ng/mL for BAL101553 and Gemcitabine. […]

[4] = Gemcitabine i.v. 240 mg/kg qw (h:0) x6
[5] = BAL101553 p.o. 8 mg/kg qd (h:4) x42
[6] = BAL101553 p.o. 10 mg/kg qd (h:4) x42
[7] = BAL101553 p.o. 16 mg/kg qd (h:4) x42

Nc1ccn([C@@H]2O[C@H](CO)[C@@H](O)C2(F)F)c(=O)n1 [Gemcitabine, gemcitabine, reference compound]
# of regressed tumors (total) [1, 4]: 4 (10) | T/C [1, 4]: 0.03 | # of confirmed cures (total) [1, 4]: 0 (10) | # of tumors with TV ≤ 4 mm^3 (total) [1, 4]: 1 (10) | % cures [1, 4]: 0% | tumor free animals / cures (in words) [1]: did not lead to tumor free animals (no cures) | tumor regression (in words) ([1]; single agent treatment (BAL101553 even at 16 n/kg; Gemcitabine SoC)): induced regression in some of the animals | Mortalities ([2]; Gemcitabine i.v. 240 mg/kg qw (h:0) x6, day 21 after first dose, 1 animal culled on day 8 (body-weight loss of more than 20%)): 1/10* | Body-weight change ([2]; mouse, in vivo, iv, 240 mg/kg): 0.9 ± 0.8 g | plasma concentrations, single agents versus combination [3]: did not change significantly

N#CCCNc1nonc1-c1nc2ccccc2n1CC(=O)c1ccc(N)cc1 [BAL27862, 3-(4-{1-[2-(4-Amino-phenyl)-2-oxo-ethyl]-1H-benzoimidazol-2-yl}-furazan-3-ylamino)-propionitrile]
plasma concentrations, single agents versus combination [3]: did not change significantly

N#CCCNc1nonc1-c1nc2ccccc2n1CC(=O)c1ccc(NC(=O)[C@@H](N)CCCCN)cc1 [BAL101553, (S)-2,6-Diamino-hexanoic acid [4-(2-{2-[4-(2-cyano-ethylamino)-furazan-3-yl]-benzoimidazol-1-yl}-acetyl)-phenyl]-amide]
# of regressed tumors (total) [1, 5]: 0 (10) | T/C [1, 5]: 0.52 | # of confirmed cures (total) [1, 5]: 0 (10) | # of tumors with TV ≤ 4 mm^3 (total) [1, 5]: 0 (20) | % cures [1, 5]: 0% | # of regressed tumors (total) [1, 6]: 0 (10) | T/C [1, 6]: 0.33 | # of confirmed cures (total) [1, 6]: 0 (10) | # of tumors with TV ≤ 4 mm^3 (total) [1, 6]: 0 (10) | % cures [1, 6]: 0% | # of regressed tumors (total) [1, 7]: 0 (10) | T/C [1, 7]: 0.28 | # of confirmed cures (total) [1, 7]: 0 (10) | # of tumors with TV ≤ 4 mm^3 (total) [1, 7]: 0 (10) | % cures [1, 7]: 0% | tumor free animals / cures (in words) [1]: did neither lead to tumor free animals | Mortalities ([2]; female, NMRI nu/nu, mouse, in vivo, po, 8 mg/kg, 21 day): 0/10 | Mortalities ([2]; female, NMRI nu/nu, mouse, in vivo, po, 10 mg/kg, 21 day): 0/10 | Mortalities ([2]; female, NMRI nu/nu, mouse, in vivo, po, 16 mg/kg, 21 day): 0/10 | Body-weight change ([2]; mouse, in vivo, po, 8 mg/kg): 0.9 ± 0.8 g | Body-weight change ([2]; mouse, in vivo, po, 10 mg/kg): 1.0 ± 1.2 g | Body-weight change ([2]; mouse, in vivo, po, 16 mg/kg): 1.1 ± 0.9 g
